{"source": "patent US7932270B2", "about": "(Cytokinetics, Inc., priority 2006, dated 2011)"}
{"target": "T1, chicken gizzard smooth muscle myosin subfragment-1 chemically crosslinked to cardiac or skeletal actin (Gallus gallus, UniProt P10587)", "T1 construct": "chicken gizzard smooth muscle myosin subfragment-1; from tissue; host or cells: chicken gizzard", "T1 sequence (P02607 2-151)": "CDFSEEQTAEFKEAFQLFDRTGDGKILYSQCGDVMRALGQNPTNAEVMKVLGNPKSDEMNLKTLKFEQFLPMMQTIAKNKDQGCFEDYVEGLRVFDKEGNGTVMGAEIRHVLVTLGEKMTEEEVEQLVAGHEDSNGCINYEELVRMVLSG", "T1 sequence (P10587 84-789)": "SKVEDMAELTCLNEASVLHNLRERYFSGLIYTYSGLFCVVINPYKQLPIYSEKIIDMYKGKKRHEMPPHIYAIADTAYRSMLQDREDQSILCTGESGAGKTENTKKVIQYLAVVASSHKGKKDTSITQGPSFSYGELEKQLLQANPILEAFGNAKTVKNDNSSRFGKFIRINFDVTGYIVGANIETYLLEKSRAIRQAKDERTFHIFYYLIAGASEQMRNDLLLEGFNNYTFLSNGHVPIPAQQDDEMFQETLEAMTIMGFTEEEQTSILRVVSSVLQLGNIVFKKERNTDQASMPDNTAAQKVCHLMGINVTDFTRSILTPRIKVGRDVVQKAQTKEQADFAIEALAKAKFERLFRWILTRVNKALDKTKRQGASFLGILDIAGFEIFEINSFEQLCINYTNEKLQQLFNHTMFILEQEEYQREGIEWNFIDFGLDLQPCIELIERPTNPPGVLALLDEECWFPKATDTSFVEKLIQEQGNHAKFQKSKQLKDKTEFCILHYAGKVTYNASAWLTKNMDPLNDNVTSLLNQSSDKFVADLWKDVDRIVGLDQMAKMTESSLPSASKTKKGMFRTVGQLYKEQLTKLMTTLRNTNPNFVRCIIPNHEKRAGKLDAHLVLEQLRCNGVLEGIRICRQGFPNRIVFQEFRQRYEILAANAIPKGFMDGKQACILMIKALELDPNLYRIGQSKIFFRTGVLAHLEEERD", "test": "Smooth muscle myosin ATPase dose response assay (pyruvate kinase/horseradish peroxidase/pyruvate oxidase-coupled, amplex red fluorescence)", "assay_type": "biochemical", "conditions": "read-out: IC50 Arithmetic Mean", "experimental": "In Vitro Model of Dose Dependent Smooth Muscle Myosin ATPase Modulation\nScreening assays were performed using a pyruvate kinase and lactate dehydrogenase-coupled ATPase assay containing the following reagents: Potassium PIPES (50 mM), MgCl2 (3 mM), KCl (100 mM), ATP (0.15 mM), DTT (1 mM), BSA (0.1 mg/ml), NADH (0.5 mM), PEP (1.5 mM), pyruvate kinase (4 U/ml), lactate dehydrogenase (8 U/ml), and antifoam (50 ppm) (concentrations expressed are final assay concentrations). The pH was adjusted to 6.80 at 22° C. by addition of potassium hydroxide. Lead optimization assays were performed with a more sensitive pyruvate kinase/horseradish peroxidase/pyruvate oxidase-coupled ATPase assay containing the following reagents: Potassium PIPES (12 mM), MgCl2 (2 mM), KCl (100 mM), ATP (0.15 mM), BSA (0.05 mg/ml), potassium phosphate (2 mM), amplex red (0.1 mM), PEP (0.1 mM), pyruvate kinase (4 U/ml), horseradish peroxidase (0.5 U/ml), pyruvate oxidase (0.5 U/ml), and antifoam (50 ppm) (concentrations expressed are final assay concentrations). The pH was adjusted to 7.00 at 22° C. by addition of potassium hydroxide.\nThe protein components specific to this assay are chicken gizzard smooth muscle myosin subfragment-1 that has been chemically crosslinked to either cardiac or skeletal actin using an excess of 1-Ethyl-3-[3-dimethylaminopropyl]carbodiimide hydrochloride and N-hydroxysuccinimide. The exact concentration of the crosslinked smooth muscle myosin in the assay is determined empirically, by titration to achieve a desired rate of ATP hydrolysis. The concentration varies between protein preparations due to variations in the fraction of active molecules in each preparation.\nCompound dose response assays are performed by first preparing a dilution series of test compound, each with an assay mixture containing potassium PIPES, MgCl2, KCl, ATP, BSA, potassium phosphate, amplex red, PEP, crosslinked smooth muscle actomyosin (subfragment-1), antifoam, and water. The assay is started by adding an equal volume of solution containing potassium Pipes, MgCl2, KCl, BSA, potassium phosphate, pyruvate kinase, horseradish peroxidase, pyruvate oxidase, antifoam, and water. ATP hydrolysis is monitored by measuring the fluorescence of amplex red (excitation at 480 nm, emission at 615 nm). The resulting dose response curve is fit by the 4 parameter equation y=Bottom+((Top-Bottom)/(1+((IC50/X)^Hill))). The IC50 is defined as the concentration at which ATPase activity is midway between the top and bottom of the dose response curve.", "units": {"IC50": "nM"}}
{"molecule": "O=C(O)c1cccc(CCNc2nc(-c3ccccc3)ccc2C(=O)NCc2cccnc2)c1", "note": "[3-[2-({6-phenyl-3-[N-(3-pyridylmethyl)carbamoyl]-2-pyridyl}amino)ethyl]benzoic acid]", "IC50": 21900}
{"molecule": "CNC(=O)CCNC(=O)c1ccc(-c2ccccc2C#N)nc1NCCc1cccc(F)c1", "note": "[3-[(6-(2-cyanophenyl)-2-{[2-(3-fluorophenyl)ethyl]amino}(3-pyridyl))carbonylamino]-N-methylpropanamide]", "IC50": 340}
{"molecule": "N#Cc1ccccc1-c1ccc(C(=O)NC2CCC(C(N)=O)C2)c(NCCc2cccc(F)c2)n1", "note": "(stereo not shown) [3-[(6-(2-cyanophenyl)-2-{[2-(3-fluorophenyl)ethyl]amino}-3-pyridyl)carbonylamino]cyclopentanecarboxamide]", "IC50": 11600}
{"molecule": "N#Cc1ccccc1-c1ccc(C(=O)NCC(CN)C(=O)NCCN)c(NCCc2cccc(F)c2)n1", "note": "(stereo not shown) [3-amino-N-(2-aminoethyl)-2-{[(6-(2-cyanophenyl)-2-{[2-(3-fluorophenyl)ethyl]amino}(3-pyridyl))carbonylamino]methyl}propanamide]", "IC50": 13700}
{"molecule": "CN(CCNC(=O)c1ccc(-c2ccccc2C#N)nc1NCCc1cccc(F)c1)C(=O)CCN", "note": "[3-amino-N-{2-[(6-(2-cyanophenyl)-2-{[2-(3-fluorophenyl)ethyl]amino}(3-pyridyl))carbonylamino]ethyl}-N-methylpropanamide]", "IC50": 1780}
{"molecule": "N#Cc1ccccc1-c1ccc(C(=O)NCCNC(=O)CCN)c(NCCc2cccc(F)c2)n1", "note": "[3-amino-N-{2-[(6-(2-cyanophenyl)-2-{[2-(3-fluorophenyl)ethyl]amino}(3-pyridyl))carbonylamino]ethyl}propanamide]", "IC50": 4320}
{"molecule": "N#Cc1ccccc1-c1ccc(C(=O)NCC(=O)NCCC(=O)O)c(NCCc2cccc(F)c2)n1", "note": "[3-{2-[(6-(2-cyanophenyl)-2-{[2-(3-fluorophenyl)ethyl]amino}-3-pyridyl)carbonylamino]acetylamino}propanoic acid]", "IC50": 9670}
{"molecule": "CN(C)C(=O)CCNc1nc(-c2ccccc2C#N)ccc1C(=O)NC[C@H]1CCCN1C(=O)CCCN", "note": "[3-{[3-(N-{[(2R)-1-(4-aminobutanoyl)pyrrolidin-2-yl]methyl}carbamoyl)-6-(2-cyanophenyl)(2-pyridyl)]amino}-N,N-dimethylpropanamide]", "IC50": 3560}
{"molecule": "CNC(=O)CCCNC(=O)c1ccc(-c2ccccc2C#N)nc1NCCc1cccc(F)c1", "note": "[4-[(6-(2-cyanophenyl)-2-{[2-(3-fluorophenyl)ethyl]amino}(3-pyridyl))carbonylamino]-N-methylbutanamide]", "IC50": 2960}
{"molecule": "N#Cc1ccccc1-c1ccc(C(=O)NCCCC(=O)O)c(NCCc2cccc(F)c2)n1", "note": "[4-[(6-(2-cyanophenyl)-2-{[2-(3-fluorophenyl)ethyl]amino}-3-pyridyl)carbonylamino]butanoic acid]", "IC50": 627}
{"molecule": "CN(CCNC(=O)c1ccc(-c2ccccc2C#N)nc1NCCc1cccc(F)c1)C(=O)CCCNC(=O)OC(C)(C)C", "note": "[4-[(tert-butoxy)carbonylamino]-N-{2-[(6-(2-cyanophenyl)-2-{[2-(3-fluorophenyl)ethyl]amino}(3-pyridyl))carbonylamino]ethyl}-N-methylbutanamide]", "IC50": 3880}
{"molecule": "CN(CCNC(=O)c1ccc(-c2ccccc2C#N)nc1NCCc1cccc(F)c1)C(=O)CCCN", "note": "[4-amino-N-{2-[(6-(2-cyanophenyl)-2-{[2-(3-fluorophenyl)ethyl]amino}(3-pyridyl))carbonylamino]ethyl}-N-methylbutanamide]", "IC50": 1200}
{"molecule": "N#Cc1ccccc1-c1ccc(C(=O)NCCNC(=O)CCCN)c(NCCc2cccc(F)c2)n1", "note": "[4-amino-N-{2-[(6-(2-cyanophenyl)-2-{[2-(3-fluorophenyl)ethyl]amino}(3-pyridyl))carbonylamino]ethyl}butanamide]", "IC50": 1260}
{"molecule": "NC(=O)c1ccc(-c2ccc(C(=O)NCc3cccnc3)c(NCCc3ccccn3)n2)cc1", "note": "[4-{6-[(2-(2-pyridyl)ethyl)amino]-5-[N-(3-pyridylmethyl)carbamoyl]-2-pyridyl}benzamide]", "IC50": 2540}
{"molecule": "O=C(O)c1ccc(-c2ccc(C(=O)NCc3cccnc3)c(NCCc3ccccn3)n2)cc1", "note": "[4-{6-[(2-(2-pyridyl)ethyl)amino]-5-[N-(3-pyridylmethyl)carbamoyl]-2-pyridyl}benzoic acid]", "IC50": 18300}
{"molecule": "CC1CN(C(=O)c2cc(F)c(-c3cnn(C)c3)nc2NCCc2cccc(F)c2)C1", "note": "[5-fluoro-2-{[2-(3-fluorophenyl)ethyl]amino}-6-(1-methylpyrazol-4-yl)(3-pyridyl) 3-methylazetidinyl ketone]", "IC50": 10500}
{"molecule": "N#Cc1ccccc1-c1ccc(C(=O)NCc2cccc(C(N)=O)n2)c(NCCc2cccc(F)c2)n1", "note": "[6-{[(6-(2-cyanophenyl)-2-{[2-(3-fluorophenyl)ethyl]amino}-3-pyridyl)carbonylamino]methyl}pyridine-2-carboxamide]", "IC50": 60}
{"molecule": "N#Cc1ccccc1-c1ccc(C(=O)NCc2cccc(C(=O)O)n2)c(NCCc2cccc(F)c2)n1", "note": "[6-{[(6-(2-cyanophenyl)-2-{[2-(3-fluorophenyl)ethyl]amino}-3-pyridyl)carbonylamino]methyl}pyridine-2-carboxylic acid]", "IC50": 47}
{"molecule": "CN1CCC(CCNc2nc(-c3ccccc3)ccc2C(=O)NCc2cccnc2)CC1", "note": "[(2-{[2-(1-methyl(4-piperidyl))ethyl]amino}-6-phenyl(3-pyridyl))-N-(3-pyridylmethyl)carboxamide]", "IC50": 20100}
{"molecule": "Cn1cnc(CCNc2nc(-c3ccccc3)ccc2C(=O)NCc2cccnc2)c1", "note": "[(2-{[2-(1-methylimidazol-4-yl)ethyl]amino}-6-phenyl(3-pyridyl))-N-(3-pyridylmethyl)carboxamide]", "IC50": 32200}
{"molecule": "N#Cc1ccccc1-c1ccc(C(=O)NCc2cccnc2)c(NCCc2cccc(F)c2F)n1", "note": "[(2-{[2-(2,3-difluorophenyl)ethyl]amino}-6-(2-cyanophenyl)(3-pyridyl))-N-(3-pyridylmethyl)carboxamide]", "IC50": 22}
{"molecule": "O=C(NCc1cccnc1)c1ccc(-c2ccccc2)nc1NCCc1cc(F)ccc1F", "note": "[(2-{[2-(2,5-difluorophenyl)ethyl]amino}-6-phenyl(3-pyridyl))-N-(3-pyridylmethyl)carboxamide]", "IC50": 79}
{"molecule": "O=C(NCc1cccnc1)c1ccc(-c2ccccc2)nc1NCCc1c(F)cccc1F", "note": "[(2-{[2-(2,6-difluorophenyl)ethyl]amino}-6-phenyl(3-pyridyl))-N-(3-pyridylmethyl)carboxamide]", "IC50": 288}
{"molecule": "N#Cc1ccccc1-c1ccc(C(=O)NCc2cccnc2)c(NCCc2ccccc2Cl)n1", "note": "[(2-{[2-(2-chlorophenyl)ethyl]amino}-6-(2-cyanophenyl)(3-pyridyl))-N-(3-pyridylmethyl)carboxamide]", "IC50": 28}
{"molecule": "O=C(NCc1cccnc1)c1ccc(-c2ccccc2)nc1NCCc1ccccc1Cl", "note": "[(2-{[2-(2-chlorophenyl)ethyl]amino}-6-phenyl(3-pyridyl))-N-(3-pyridylmethyl)carboxamide]", "IC50": 160}
{"molecule": "O=C(NCc1cccnc1)c1ccc(-c2ccccc2)nc1NCCc1ccccc1F", "note": "[(2-{[2-(2-fluorophenyl)ethyl]amino}-6-phenyl(3-pyridyl))-N-(3-pyridylmethyl)carboxamide]", "IC50": 107}
{"molecule": "O=C(NCc1cccnc1)c1ccc(-c2ccccc2)nc1NCCc1ccccc1O", "note": "[(2-{[2-(2-hydroxyphenyl)ethyl]amino}-6-phenyl(3-pyridyl))-N-(3-pyridylmethyl)carboxamide]", "IC50": 2430}
{"molecule": "COc1ccccc1CCNc1nc(-c2ccccc2)ccc1C(=O)NCc1cccnc1", "note": "[(2-{[2-(2-methoxyphenyl)ethyl]amino}-6-phenyl(3-pyridyl))-N-(3-pyridylmethyl)carboxamide]", "IC50": 980}
